Measured values reported in ChEMBL document CHEMBL1135137, “Synthesis and pharmacological characterization of a potent, orally active p38 kinase inhibitor” (Bioorg Med Chem Lett, 2002).
In brackets after ≈: the same amount, converted by molar mass.

Key:
[1] = target: Mitogen-activated protein kinase 14 (Homo sapiens, UniProt Q16539); experiment: Inhibitory activity against Mitogen-activated protein kinase p38 alpha 2
SW1353 = experiment: TNF-alpha-induced IL-6 production in SW1353 cells; assay type: functional, cell-based; conditions: Homo sapiens
[2] = Solubility at pH 2.0; assay type: physicochemical; conditions: buffer
Mus musculus [3] = experiment: Percent inhibition of TNF-alpha-induced IL-6 production at 100 mg/kg peroral dose in mice; assay type: functional; conditions: route oral
[4] = Solubility at pH 7.5; assay type: physicochemical; conditions: buffer
Mus musculus [5] = experiment: Percent inhibition of TNF-alpha-induced IL-6 production at 50 mg/kg peroral dose in mice; assay type: functional; conditions: route oral
Mus musculus [6] = species on record: Mus musculus; experiment: animal or person; conditions: po, read-out: Inhibition
Mus musculus [7] = experiment: Effect in murine model of arthritis onset in mice immunized with bovine type II collagen at 50 mg/kg; Number of paws affected; assay type: functional
Mus musculus [8] = species on record: Mus musculus; experiment: animal or person; conditions: po, read-out: Inhibition; remark: listed apart in the source
Mus musculus [9] = species on record: Mus musculus; experiment: animal or person; conditions: po, read-out: Inhibition; remark: listed apart in the source
Mus musculus [10] = experiment: Effect on LPS-induced TNF-alpha production in mice at 30 mg/kg peroral dose; assay type: functional; conditions: route oral
Mus musculus [11] = experiment: Effect on LPS-induced TNF-alpha production in mice at 10 mg/kg peroral dose; assay type: functional; conditions: route oral
Mus musculus [12] = experiment: Effect in murine model of arthritis onset in mice immunized with bovine type II collagen at 50 mg/kg; Histopathology in interstitial edema; assay type: functional
Mus musculus [13] = experiment: Effect in murine model of arthritis onset in mice immunized with bovine type II collagen at 50 mg/kg; Histopathology in inflammatory cell; assay type: functional
Mus musculus [14] = experiment: Percent inhibition of TNF-alpha-induced IL-6 production at 10 mg/kg peroral dose in mice; assay type: functional; conditions: route oral
Mus musculus [15] = experiment: Percent inhibition of TNF-alpha-induced IL-6 production at 25 mg/kg peroral dose in mice; assay type: functional; conditions: route oral
[16] = target: Mitogen-activated protein kinase 8 (Homo sapiens) (UniProt P45983); experiment: Inhibition of c-Jun N-terminal kinase 1 at 0.5 uM
[17] = target: Receptor tyrosine-protein kinase erbB-2 (Homo sapiens, UniProt P04626); experiment: Inhibition of human epidermal growth factor receptor-2
[18] = target: Epidermal growth factor receptor (Homo sapiens) (UniProt P00533); experiment: Inhibition of Epidermal growth factor receptor at 10 uM
[19] = target: Protein kinase C beta type (Homo sapiens) (UniProt P05771); experiment: Inhibition of Protein kinase C beta at 10 uM
Mus musculus [20] = experiment: Effect in murine model of arthritis onset in mice immunized with bovine type II collagen at 10 mg/kg; Number of paws affected; assay type: functional
Mus musculus [21] = experiment: Percentage inhibition of LPS-induced TNF-alpha production in mice at 50 mg/kg peroral dose; assay type: functional; conditions: route oral
[22] = target: cAMP-dependent protein kinase (PKA) (Homo sapiens) (UniProt P22694+P17612+P22612); experiment: Inhibition of Protein kinase A at 10 uM; assay type: protein assay
Mus musculus [23] = experiment: Effect in murine model of arthritis onset in mice immunized with bovine type II collagen at 10 mg/kg; Histopathology in interstitial edema; assay type: functional
Mus musculus [24] = experiment: Percentage inhibition of LPS-induced TNF-alpha production in mice at 10 mg/kg peroral dose; assay type: functional; conditions: route oral
[25] = target: Tyrosine-protein kinase Lck (Homo sapiens) (UniProt P06239); experiment: Inhibition of p59 Lck tyrosine kinase at 10 uM
Mus musculus [26] = experiment: Effect on LPS-induced TNF-alpha production in mice at 50 mg/kg peroral dose; assay type: functional; conditions: route oral
[27] = target: Mitogen-activated protein kinase 11 (Homo sapiens, UniProt Q15759); experiment: Inhibition of Mitogen-activated protein kinase p38 beta
Mus musculus [28] = experiment: Effect in murine model of arthritis onset in mice immunized with bovine type II collagen at 3 mg/kg; Number of paws affected; assay type: functional
Mus musculus [29] = experiment: Percentage inhibition of LPS-induced TNF-alpha production in mice at 20 mg/kg peroral dose; assay type: functional; conditions: route oral
Mus musculus [30] = experiment: Effect on LPS-induced TNF-alpha production in mice at 20 mg/kg peroral dose; assay type: functional; conditions: route oral
[31] = target: Protein kinase C alpha type (Homo sapiens) (UniProt P17252); experiment: Inhibition of Protein kinase C alpha at 10 uM
Mus musculus [32] = experiment: Effect in murine model of arthritis onset in mice immunized with bovine type II collagen at 30 mg/kg; Number of paws affected; assay type: functional
Mus musculus [33] = experiment: Effect in murine model of arthritis onset in mice immunized with bovine type II collagen at 3 mg/kg; Histopathology in interstitial edema; assay type: functional
Mus musculus [34] = experiment: Effect in murine model of arthritis onset in mice immunized with bovine type II collagen at 30 mg/kg; Histopathology in inflammatory cell; assay type: functional
Mus musculus [35] = experiment: Effect in murine model of arthritis onset in mice immunized with bovine type II collagen at 10 mg/kg; Histopathology in inflammatory cell; assay type: functional
Mus musculus [36] = experiment: Effect in murine model of arthritis onset in mice immunized with bovine type II collagen at 30 mg/kg; Histopathology in interstitial edema; assay type: functional
[37] = target: Protein kinase C gamma type (Homo sapiens) (UniProt P05129); experiment: Inhibition of Protein kinase C gamma at 10 uM
[38] = target: Tyrosine-protein kinase Fyn (Homo sapiens) (UniProt P06241); experiment: Inhibition of p59 Fyn tyrosine kinase at 10 uM
Mus musculus [39] = experiment: Effect in murine model of arthritis onset in mice immunized with bovine type II collagen at 3 mg/kg; Histopathology in inflammatory cell; assay type: functional
[40] = target: Mitogen-activated protein kinase 3 (Homo sapiens) (UniProt P27361); experiment: Inhibition of Mitogen-activated protein kinase 3 at 5 uM
[41] = target: Tyrosine-protein kinase ABL (Homo sapiens) (UniProt P00519+P42684); experiment: Inhibition of Abl tyrosine kinase at 5 uM; assay type: protein assay
Chain of Tyrosine-protein kinase ABL (Homo sapiens) (P00519 whole entry, looked up): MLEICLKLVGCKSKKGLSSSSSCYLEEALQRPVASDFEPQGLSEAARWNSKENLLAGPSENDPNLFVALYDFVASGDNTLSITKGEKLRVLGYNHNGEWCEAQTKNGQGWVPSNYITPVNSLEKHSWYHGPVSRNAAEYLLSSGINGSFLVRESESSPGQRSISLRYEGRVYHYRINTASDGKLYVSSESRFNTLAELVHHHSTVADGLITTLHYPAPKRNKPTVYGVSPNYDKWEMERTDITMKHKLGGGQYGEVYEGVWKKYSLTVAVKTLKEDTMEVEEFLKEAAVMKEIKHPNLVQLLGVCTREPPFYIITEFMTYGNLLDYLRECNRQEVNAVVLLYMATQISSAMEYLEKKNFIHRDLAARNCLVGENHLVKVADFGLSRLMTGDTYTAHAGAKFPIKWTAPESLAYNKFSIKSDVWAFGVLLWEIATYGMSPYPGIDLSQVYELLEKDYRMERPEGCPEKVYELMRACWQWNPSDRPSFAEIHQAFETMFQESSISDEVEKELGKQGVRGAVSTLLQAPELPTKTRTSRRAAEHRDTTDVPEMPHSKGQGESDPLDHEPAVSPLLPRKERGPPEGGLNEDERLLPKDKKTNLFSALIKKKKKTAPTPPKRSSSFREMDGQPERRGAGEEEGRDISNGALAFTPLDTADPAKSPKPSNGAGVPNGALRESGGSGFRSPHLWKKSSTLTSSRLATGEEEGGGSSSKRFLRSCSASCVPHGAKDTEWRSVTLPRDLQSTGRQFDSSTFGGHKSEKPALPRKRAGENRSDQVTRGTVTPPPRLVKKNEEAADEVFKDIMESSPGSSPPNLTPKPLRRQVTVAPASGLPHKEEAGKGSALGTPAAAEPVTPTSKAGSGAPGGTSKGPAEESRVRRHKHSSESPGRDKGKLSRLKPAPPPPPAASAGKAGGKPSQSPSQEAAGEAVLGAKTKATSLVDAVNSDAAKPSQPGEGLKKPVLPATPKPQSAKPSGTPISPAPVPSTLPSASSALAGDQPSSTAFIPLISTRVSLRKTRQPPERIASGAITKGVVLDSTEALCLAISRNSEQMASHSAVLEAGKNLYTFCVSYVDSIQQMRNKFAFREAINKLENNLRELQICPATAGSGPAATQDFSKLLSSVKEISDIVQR
Chain of Tyrosine-protein kinase ABL (Homo sapiens) (P42684 whole entry, looked up): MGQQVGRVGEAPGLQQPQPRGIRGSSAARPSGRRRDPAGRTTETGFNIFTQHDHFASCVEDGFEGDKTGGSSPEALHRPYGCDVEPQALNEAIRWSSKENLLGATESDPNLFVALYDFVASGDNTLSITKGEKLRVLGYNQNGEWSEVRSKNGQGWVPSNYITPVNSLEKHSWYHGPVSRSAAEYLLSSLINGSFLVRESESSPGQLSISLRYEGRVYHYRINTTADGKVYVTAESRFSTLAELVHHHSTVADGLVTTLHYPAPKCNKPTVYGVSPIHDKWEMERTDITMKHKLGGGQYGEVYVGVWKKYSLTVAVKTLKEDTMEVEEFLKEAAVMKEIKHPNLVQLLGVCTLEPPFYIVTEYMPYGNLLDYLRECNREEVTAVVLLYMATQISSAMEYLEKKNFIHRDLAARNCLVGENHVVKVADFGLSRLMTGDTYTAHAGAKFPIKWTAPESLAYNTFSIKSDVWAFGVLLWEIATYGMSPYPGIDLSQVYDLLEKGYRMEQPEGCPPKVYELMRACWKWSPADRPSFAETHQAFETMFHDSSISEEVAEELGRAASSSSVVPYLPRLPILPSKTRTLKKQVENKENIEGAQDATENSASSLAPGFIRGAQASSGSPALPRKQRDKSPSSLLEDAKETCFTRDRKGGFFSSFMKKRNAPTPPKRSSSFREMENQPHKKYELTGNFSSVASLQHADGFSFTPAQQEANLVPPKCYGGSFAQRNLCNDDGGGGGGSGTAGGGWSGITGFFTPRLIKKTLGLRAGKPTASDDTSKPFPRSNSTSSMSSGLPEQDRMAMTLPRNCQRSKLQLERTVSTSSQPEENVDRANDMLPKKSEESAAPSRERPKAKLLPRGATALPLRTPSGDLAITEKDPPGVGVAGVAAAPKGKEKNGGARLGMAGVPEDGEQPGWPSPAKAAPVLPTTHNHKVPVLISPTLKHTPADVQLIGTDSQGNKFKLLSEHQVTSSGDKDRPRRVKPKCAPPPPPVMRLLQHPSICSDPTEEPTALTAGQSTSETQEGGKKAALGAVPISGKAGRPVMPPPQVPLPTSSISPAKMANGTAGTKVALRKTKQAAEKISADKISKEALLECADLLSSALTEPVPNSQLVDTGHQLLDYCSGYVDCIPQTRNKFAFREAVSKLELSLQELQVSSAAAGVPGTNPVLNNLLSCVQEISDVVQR

Chain of Mitogen-activated protein kinase 14 (Q16539 whole entry): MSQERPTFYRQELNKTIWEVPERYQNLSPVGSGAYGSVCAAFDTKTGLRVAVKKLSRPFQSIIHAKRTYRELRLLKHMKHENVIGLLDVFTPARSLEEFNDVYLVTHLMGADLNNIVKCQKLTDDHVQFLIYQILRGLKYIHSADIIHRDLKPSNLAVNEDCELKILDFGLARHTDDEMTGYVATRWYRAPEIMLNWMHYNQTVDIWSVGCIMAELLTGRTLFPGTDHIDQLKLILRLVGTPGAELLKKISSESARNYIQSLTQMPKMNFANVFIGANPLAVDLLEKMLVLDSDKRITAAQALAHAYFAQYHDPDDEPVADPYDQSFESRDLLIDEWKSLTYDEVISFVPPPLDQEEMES
Chain of Tyrosine-protein kinase Fyn (Homo sapiens) (P06241 2-537 limits assumed): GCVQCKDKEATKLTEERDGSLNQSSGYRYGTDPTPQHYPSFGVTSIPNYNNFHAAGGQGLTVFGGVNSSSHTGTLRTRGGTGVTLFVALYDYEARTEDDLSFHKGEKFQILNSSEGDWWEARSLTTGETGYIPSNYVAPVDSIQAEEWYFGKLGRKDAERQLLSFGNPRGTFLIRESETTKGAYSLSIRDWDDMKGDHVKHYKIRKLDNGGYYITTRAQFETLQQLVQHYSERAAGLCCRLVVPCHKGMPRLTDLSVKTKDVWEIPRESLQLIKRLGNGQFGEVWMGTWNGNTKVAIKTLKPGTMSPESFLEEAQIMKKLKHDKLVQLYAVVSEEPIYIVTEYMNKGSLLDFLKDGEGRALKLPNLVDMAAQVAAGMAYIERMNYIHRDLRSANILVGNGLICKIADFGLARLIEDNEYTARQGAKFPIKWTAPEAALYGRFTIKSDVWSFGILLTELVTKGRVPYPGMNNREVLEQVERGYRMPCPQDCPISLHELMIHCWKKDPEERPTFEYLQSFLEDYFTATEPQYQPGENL
Chain of Mitogen-activated protein kinase 3 (Homo sapiens) (P27361 whole entry): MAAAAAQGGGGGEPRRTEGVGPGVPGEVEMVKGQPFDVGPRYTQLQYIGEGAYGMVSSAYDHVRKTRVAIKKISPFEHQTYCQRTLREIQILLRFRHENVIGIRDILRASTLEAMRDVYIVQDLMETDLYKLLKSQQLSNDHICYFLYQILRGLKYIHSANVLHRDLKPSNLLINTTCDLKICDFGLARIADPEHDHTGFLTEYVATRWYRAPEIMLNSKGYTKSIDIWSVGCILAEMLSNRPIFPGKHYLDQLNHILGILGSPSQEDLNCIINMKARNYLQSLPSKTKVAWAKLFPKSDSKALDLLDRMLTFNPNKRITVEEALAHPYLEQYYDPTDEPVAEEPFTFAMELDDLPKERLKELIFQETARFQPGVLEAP
Chain of Tyrosine-protein kinase Lck (Homo sapiens) (P06239 2-509 limits assumed): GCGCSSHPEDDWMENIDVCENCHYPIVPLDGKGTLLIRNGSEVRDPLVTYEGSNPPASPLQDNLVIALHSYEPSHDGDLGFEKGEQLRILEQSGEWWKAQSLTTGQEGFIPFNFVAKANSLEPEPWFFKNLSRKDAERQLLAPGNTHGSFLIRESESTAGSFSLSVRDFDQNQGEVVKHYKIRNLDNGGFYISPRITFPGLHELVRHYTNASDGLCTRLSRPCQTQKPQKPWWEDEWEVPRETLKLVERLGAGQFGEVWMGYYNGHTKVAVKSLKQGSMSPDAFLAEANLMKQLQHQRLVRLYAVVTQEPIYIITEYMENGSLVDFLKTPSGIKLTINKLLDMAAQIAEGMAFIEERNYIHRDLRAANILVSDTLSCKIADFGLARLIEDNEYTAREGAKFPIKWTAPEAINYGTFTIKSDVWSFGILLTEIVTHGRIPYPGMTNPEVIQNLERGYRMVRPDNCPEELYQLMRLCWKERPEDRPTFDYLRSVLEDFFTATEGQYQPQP

Compound CC(C)CC(=O)Nc1ccc(Oc2ccc(NC(=O)Nc3cc(C(C)(C)C)nn3C)cc2)cc1 has an IC50 [1] of 45 nM and an IC50 (SW1353) of 313 nM.

Work on Cn1nc(C(C)(C)C)cc1NC(=O)Nc1ccc(OCc2ccncc2)cc1 yielded an IC50 [1] of 260 nM.

Compound CC(=O)Nc1ccc(Oc2ccc(NC(=O)Nc3cc(C(C)(C)C)nn3C)cc2)cc1 has an IC50 [1] of 235 nM.

Work on Cn1nc(C(C)(C)C)cc1NC(=O)Nc1ccc(Sc2ccc(O)cc2)cc1 yielded an IC50 [1] of 35 nM and an IC50 (SW1353) of 1100 nM.

For Cn1nc(C(C)(C)C)cc1NC(=O)Nc1ccc(Cc2ccc(NC(=O)OC(C)(C)C)cc2)cc1, the IC50 [1] was 87 nM and the IC50 (SW1353) was 57 nM.

Work on Cn1nc(C(C)(C)C)cc1NC(=O)Nc1ccc(Oc2ccccc2)cc1 yielded an IC50 [1] of 270 nM.

Work on CCCCOc1ccc(Sc2ccc(NC(=O)Nc3cc(C(C)(C)C)nn3C)cc2)cc1 yielded an IC50 [1] of 69 nM and an IC50 (SW1353) greater than 2500 nM.

With Cc1ccc(Oc2ccc(NC(=O)Nc3cc(C(C)(C)C)nn3C)cc2)cc1 the IC50 [1] was 160 nM.

CCC(=O)Nc1ccc(Oc2ccc(NC(=O)Nc3cc(C(C)(C)C)nn3C)cc2)cc1 gave an IC50 [1] of 69 nM and an IC50 (SW1353) of 1060 nM.

Compound CC(C)OC(=O)Nc1ccc(Oc2ccc(NC(=O)Nc3cc(C(C)(C)C)nn3C)cc2)cc1 has an IC50 [1] of 54 nM and an IC50 (SW1353) of 162 nM.

Cn1nc(C(C)(C)C)cc1NC(=O)Nc1ccc(SCc2ccncc2)cc1 showed an IC50 [1] of 140 nM.

In the case of Cn1nc(C(C)(C)C)cc1NC(=O)Nc1ccc(Sc2ccncc2)cc1, the IC50 [1] is reported as 13 nM, the solubility [2] is reported as 1660 µg/mL (≈ 4350 µM) and the inhibition in vivo at 100 mg/kg (Mus musculus [3]) is reported as less than 90%. The solubility [4] was 655 µg/mL (≈ 1720 µM), the IC50 (SW1353) was 95 nM and the inhibition in vivo at 50 mg/kg (Mus musculus [5]) was less than 77%.

With Cn1nc(C(C)(C)C)cc1NC(=O)Nc1ccc(Oc2ccc(N)cc2)cc1 the IC50 [1] was 310 nM.

C[S+]([O-])c1ccc(-c2nc(-c3ccc(F)cc3)c(-c3ccncc3)[nH]2)cc1 (stereo not given) [SB-203580] showed an inhibition in vivo at 30 mg/kg (Mus musculus [6]) of less than 65.4%, an Activity (Mus musculus [7]) of 1 and an inhibition in vivo at 100 mg/kg (Mus musculus [8]) of 80%. For the same compound, the inhibition in vivo at 10 mg/kg (Mus musculus [9]) was -1.4%, the Activity (Mus musculus [10]) was 13 ng/mL and the Activity (Mus musculus [11]) was 38 ng/mL. The IO (Mus musculus [12]) was 0.25 and the IC (Mus musculus [13]) was 0.63.

With CC(=O)Nc1ccc(Cc2ccc(NC(=O)Nc3cc(C(C)(C)C)nn3C)cc2)cc1 the IC50 [1] was 70 nM.

With CC(C)CC(=O)Nc1ccc(Cc2ccc(NC(=O)Nc3cc(C(C)(C)C)nn3C)cc2)cc1 the IC50 [1] was 37 nM and the IC50 (SW1353) was 170 nM.

Cn1nc(C(C)(C)C)cc1NC(=O)Nc1ccc(Oc2ccc(OCc3ccccc3)cc2)cc1 showed an IC50 [1] of 110 nM.

With Cn1nc(C(C)(C)C)cc1NC(=O)Nc1ccc(Oc2ccc(C(C)(C)C)cc2)cc1 the IC50 [1] was 183 nM.

Cn1nc(C(C)(C)C)cc1NC(=O)Nc1ccc(Cc2ccc(N)cc2)cc1 gave an IC50 [1] of 290 nM.

For Cn1nc(C(C)(C)C)cc1NC(=O)Nc1ccc(CSc2ccncc2)cc1, the IC50 [1] was 44 nM, the solubility [2] was 5160 µg/mL (≈ 13000 µM) and the inhibition in vivo at 10 mg/kg (Mus musculus [14]) was -15%. It also gave a solubility [4] of 322 µg/mL (≈ 814 µM), an IC50 (SW1353) of 584 nM and an inhibition in vivo at 50 mg/kg (Mus musculus [5]) of less than 64%. For the same compound, the inhibition in vivo at 25 mg/kg (Mus musculus [15]) was 22%.

CCOC(=O)Nc1ccc(Oc2ccc(NC(=O)Nc3cc(C(C)(C)C)nn3C)cc2)cc1 gave an IC50 [1] of 33 nM, a solubility [2] of 77 µg/mL (≈ 171 µM) and a solubility [4] of 95 µg/mL (≈ 210 µM). It also gave an IC50 (SW1353) of 87 nM and an inhibition in vivo at 50 mg/kg (Mus musculus [5]) of 16%.

Cn1nc(C(C)(C)C)cc1NC(=O)Nc1ccc(Cc2ccncc2)cc1 gave an inhibition [16] of 2%, an IC50 [17] of 4.2 nM and an inhibition [18] of 17%. For the same compound, the inhibition [19] was 5%, the Activity (Mus musculus [20]) was 1.9 and the inhibition in vivo at 50 mg/kg (Mus musculus [21]) was less than 86.5%. It also gave an inhibition [22] of 7%, an Activity (Mus musculus [23]) of 0.3 and an inhibition in vivo at 10 mg/kg (Mus musculus [24]) of -24.5%. It also gave an inhibition [25] of 8%, an Activity (Mus musculus [26]) of 5.1 ng/mL and a solubility [2] of 2000 µg/mL (≈ 5500 µM). For the same compound, the IC50 [27] was 110 nM, the Activity (Mus musculus [28]) was 1.4 and the inhibition in vivo at 20 mg/kg (Mus musculus [29]) was less than 47.1%. It also gave an Activity (Mus musculus [30]) of 19.8 ng/mL, an inhibition [31] of 0% and an Activity (Mus musculus [32]) of 0.7. The solubility [4] was 50 µg/mL (≈ 138 µM), the IO (Mus musculus [33]) was 0.33 and the Activity (Mus musculus [34]) was 0.38. It also gave an Activity (Mus musculus [11]) of 46.7 ng/mL, an IC50 (SW1353) of 323 nM and an Activity (Mus musculus [35]) of 0.78. It also gave an Activity (Mus musculus [36]) of 0.2, an inhibition [37] of 21% and an inhibition [38] of 20%. It also gave an IC (Mus musculus [39]) of 0.8, an inhibition in vivo at 50 mg/kg (Mus musculus [5]) of 84% and an inhibition in vivo at 25 mg/kg (Mus musculus [15]) of 60%. The inhibition [40] was 8% and the inhibition [41] was 3%.

CCCOc1ccc(Sc2ccc(NC(=O)Nc3cc(C(C)(C)C)nn3C)cc2)cc1 showed an IC50 [1] of 57 nM and an IC50 (SW1353) of 235 nM.

Work on CCC(=O)Nc1ccc(Cc2ccc(NC(=O)Nc3cc(C(C)(C)C)nn3C)cc2)cc1 yielded an IC50 [1] of 38 nM and an IC50 (SW1353) of 1750 nM.

Cn1nc(C(C)(C)C)cc1NC(=O)Nc1ccc(Nc2ccncc2)cc1 gave an IC50 [1] of 420 nM.

Cn1nc(C(C)(C)C)cc1NC(=O)Nc1ccc(CCc2ccncc2)cc1 showed an IC50 [1] of 430 nM.

With Cn1nc(C(C)(C)C)cc1NC(=O)Nc1ccc(Cc2ccc(NC(=O)CCC(=O)O)cc2)cc1 the IC50 [1] was 200 nM and the IC50 (SW1353) was greater than 2500 nM.
